In US5552520A, “Therapeutic peptide derivatives” (Biomeasure, Inc., priority 1994, dated 1996):
Blank lines part the entries; values can stand above or below the molecule they belong to. Numbered stars: 1 amine (or outer) side, 2 acyl side, 3 side chain; on linkers, the order of the positions; unused ones are H or OH. Bridge positions count the residues as written; N and C are the ends. Square brackets hold non-standard residues; d marks the D form. Peptide text beside a SMILES is read from it. * marks the point of attachment. X1 = O=C1O[C@H]([C@@H](O)CO)C(OCC(=O)*)=C1OCC(O)CO; 2Nal = N[C@@H](Cc1ccc2ccccc2c1)C(=O)O; Suc = O=C(CCC(=O)[*:2])[*:1]; NHC(CH2OH)3 = OCC(CO)(CO)N*

Experiments:
[1] = tested on: stimulated growth hormone release; experiment: Growth Hormone (GH) Inhibition Assay in rats (D-Ala2-GRF stimulated GH); type: in vivo, male Sprague Dawley rats; details: s.c., 25 μg/kg
Description: Groups of five male Sprague Dawley rats (each having a weight between 250-300 g) were injected s.c. with a somatostatin derivative or saline. Thirty minutes prior to the selected post-drug time periods shown in table II (2 hours, 4 hours, 6 hours, 8 hours), rats were anesthetized with Nembutal i.p. (50 mg/kg). Fifteen minutes following anesthesia, an aliquot of blood was withdrawn by cardiac puncture over heparin to measure basal GH. Additionally, a s.c. injection of D-Ala^2 -GRF (10 μg/kg) was given. Fifteen minutes later, blood was withdrawn to quantitate the stimulated GH, which was measured in plasma using a radioimmunoassay supplied by NIADDKD. The percentage of GH inhibition was calculated from differences obtained between basal and stimulated GH values.
The efficacy of D-Phe-c[Cys-Tyr-D-Trp-Lys-Thr-Cys]-Nal-NH2 (SEQ ID NO. 113) (BIM-23060) in inhibiting growth hormone in rats is compared with other somatostatin derivatives (BIM-23167, BIM-23179, and BIM-23181) of the invention.
Additional experiments were conducted on D-Phe-c[Cys-Tyr-D-Trp-Lys-Abu-Cys]-Thr-NH2, (SEQ ID NO. 112) a somatostatin analog, and BIM-23190, BIM-23195 and BIM-23197, to determine the ED50 (i.e., the concentration of each compound required to inhibit fifty percent of growth hormone release after a specified time) of the respective compound. Experiments were conducted at a dose range of between 25 μg/kg and 0.25 μg/kg.

somatostatin receptor = target: T1, somatostatin receptor (Rattus norvegicus, UniProt P30680); experiment: Somatostatin binding assay: in vitro inhibition of binding of [125I-Tyr11]SRIF-14 to rat AR42J pancreas membranes; details: inhibition of [125I-Tyr11]SRIF-14 binding, read-out: IC50, in vitro binding affinity
T1 construct: SRIF-14 to rat AR42J pancreas membranes; endogenous in cells; host or cells: rat AR42J pancreatic cells (membrane preparation)

[2] = tested on: AR42J rat pancreas tumor cells; experiment: Antiproliferative assay on AR42J cells; type: cell-based; details: Concentration 100 nM, AR42J Rat Pancreas Tumor Cells after 8 days
Description: The purified somatostatin analogs described above were also tested for activity against rapidly proliferating cells.
^1 Concentration 100 nM, AR42J Rat Pancreas Tumor Cells after 8 days.

[3] = tested on: AR42J rat pancreas tumor cells; experiment: Antiproliferative assay on AR42J cells; type: cell-based; details: growth curves, concentration dependence

T1 sequence (P30680 whole entry): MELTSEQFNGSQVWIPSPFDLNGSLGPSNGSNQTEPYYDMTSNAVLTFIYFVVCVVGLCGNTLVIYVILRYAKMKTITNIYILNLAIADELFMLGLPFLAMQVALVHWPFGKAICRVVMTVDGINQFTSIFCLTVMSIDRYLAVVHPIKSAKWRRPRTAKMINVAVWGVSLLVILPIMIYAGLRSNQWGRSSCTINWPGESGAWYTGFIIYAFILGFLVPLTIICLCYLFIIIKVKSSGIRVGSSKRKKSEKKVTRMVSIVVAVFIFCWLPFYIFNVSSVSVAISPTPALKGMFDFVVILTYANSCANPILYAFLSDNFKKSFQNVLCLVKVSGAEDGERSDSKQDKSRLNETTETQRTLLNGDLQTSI

IC50 (somatostatin receptor): 0.09 nM
Molecule: C[C@@H](O)[C@@H]1NC(=O)[C@H](CCCCN)NC(=O)[C@@H](Cc2c[nH]c3ccccc23)NC(=O)[C@H](Cc2ccc(O)cc2)NC(=O)[C@@H](NC(=O)[C@@H](Cc2ccccc2)NC(=O)CCC(=O)NC(CO)(CO)CO)CSSC[C@@H](C(=O)N[C@@H](Cc2ccc3ccccc3c2)C(N)=O)NC1=O [BIM-23167, (HO-CH2)3 -C-NH-CO-(CH2)2 -CO-D-Phe-c[Cys-Tyr-D-Trp-Lys-Thr-Cys]-Nal-NH2] ({NHC(CH2OH)3-Suc}-[dF]CY[dW]KTC[2Nal]-NH2; disulfide 2-7)
Inhibition of stimulated growth hormone release (percentile control) ([1]; 2 Hours): 92.67 percentile control | Inhibition of stimulated growth hormone release (percentile control) ([1]; 4 Hours): 79.54 percentile control | Inhibition of stimulated growth hormone release (percentile control) ([1]; 6 Hours): 59.72 percentile control | Inhibition of stimulated growth hormone release (percentile control) ([1]; 8 Hours): 50.14 percentile control | Cell growth (percent of control) [2]: 60.2% of control

Molecule: C[C@@H](O)[C@@H]1NC(=O)[C@H](CCCCN)NC(=O)[C@@H](Cc2c[nH]c3ccccc23)NC(=O)[C@H](Cc2ccc(O)cc2)NC(=O)[C@@H](NC(=O)[C@@H](Cc2ccccc2)NC(=O)COC2=C(OCC(O)CO)C(=O)O[C@@H]2[C@@H](O)CO)CSSC[C@@H](C(=O)N[C@@H](Cc2ccc3ccccc3c2)C(N)=O)NC1=O (stereo partly drawn) [BIM-23181] (X1-[dF]CY[dW]KTC[2Nal]-NH2; disulfide 2-7)
Inhibition of stimulated growth hormone release (percentile control) ([1]; 2 Hours): 99.24 percentile control | Inhibition of stimulated growth hormone release (percentile control) ([1]; 4 Hours): 77.07 percentile control | Inhibition of stimulated growth hormone release (percentile control) ([1]; 6 Hours): 60.56 percentile control | Inhibition of stimulated growth hormone release (percentile control) ([1]; 8 Hours): 56.12 percentile control | Cell growth (percent of control) [2]: 69.1% of control

Molecule: CC(C)[C@@H]1NC(=O)[C@H](CCCCN)NC(=O)[C@@H](Cc2c[nH]c3ccccc23)NC(=O)[C@H](Cc2ccc(O)cc2)NC(=O)[C@@H](NC(=O)[C@@H](Cc2ccc3ccccc3c2)NC(=O)CCCOC2=C(O)C(=O)O[C@@H]2[C@@H](O)CO)CSSC[C@@H](C(=O)N[C@H](C(N)=O)[C@@H](C)O)NC1=O [BIM-23118]
Inhibition of growth of AR42J cells (FIG. 1), in words [3]: the more effective of the two compounds | Cell growth (percent of control) [2]: 61.0% of control

Molecule: D-Nal-c[Cys-Tyr-D-Trp-Lys-Val-Cys]-Thr-NH2 [BIM-23014C, reference compound]
Inhibition of growth of AR42J cells (FIG. 1), in words [3]: inhibit the growth of AR42J rat pancreas tumor cells in a concentration-dependent fashion | Cell growth (percent of control) [2]: 74.1% of control
